Experimental data: patent US20250197387A1, “BCL-XL DEGRADERS AND USES THEREOF” (Kymera Therapeutics, Inc., priority 2021, published 2025)
pIC50: −log10 of the molar value. Read-outs that look alike come from different tables or passages of the source.

How the values were obtained:
[1] = biological target: T1, BCL-XL (Homo sapiens, UniProt Q07817); assay: BCL-XL degradation assay, western blot in MOLT-4 cells, 16 h; format: cell-based; details: for DC50: read-out: Bcl-xL WB in MOLT-4 degradation 16 h: Mean external-Abs DC50
T1 construct: endogenous in cells; host or cells: MOLT-4
Method in brief: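 MOLT-4 cells treated with compounds at 0.02-10 μM final for 16 hr at 37° C; lysates analysed by western blot with anti-BCL-xL, beta-actin and GAPDH loading controls, infrared imaging and densitometry; DC50 and Dmax % reported as letter codes.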

[2] = system: MOLT-4 cells; assay: CTG (CellTiter-Glo) cell viability assay, MOLT-4; format: cell-based; details: Homo sapiens, 3 day incubation, read-out: CTG Cell Viability Assay - MOLT-4 3 day: Average external-IC50
Procedure: Compound-mediated viability effect on MOLT-4 and Caki-2 was quantitatively determined using the CellTiter-Glo® Luminescent Cell Viability Assay kit from Promega (Catalog number G7570) following manufacturer's recommended procedures. Briefly, MOLT-4 and Caki-2 cells were seeded into 384 well plates (Grenier Bio-One, Catalog number 781080) with a density of 10,000 cells per well. Compounds were then added to the assay plate with final top concentration of 10 μM and 1:3 dilution series with total of 9 doses. The final DMSO concentration is normalized to 0.2%. The assay plates were incubated at 37° C., for 3 days under 5% CO2. Then the assay plate was equilibrated at room temperature for 10 minutes. To determine cell viability, 30 uL CellTiter Glo reagent was added to each well and the assay plate was centrifuged at 1000 rpm for 30 second, incubated at room temperature for 10 min, and analyzed by detecting the luminescence using a multimode plate reader (EnVision 2105, PerkinElmer). The data was then analyzed by software Prism 7.0 from GraphPad and the dose response curves are fit using a three-parameter logistic equation to calculate IC50.
The letter codes for MOLT-4 IC50 include: A (<0.1 μM); B (0.1-1.0 μM); C (>1.0-3.0 μM); and D (>3.0 μM). The letter codes for Caki-2 IC50 include: A (<0.1 μM); B (0.1-1.0 μM); C (>1.0-10.0 μM); and D (>10.0 μM).

[3] = western blot, MOLT-4 cells, 16 h, read-out: Bcl-xL WB in MOLT-4 degradation 16 h: Average Dmax %
[4] = western blot, MOLT-4 cells, 16 h
[5] = MOLT-4, read-out: Bcl-xL WB in MOLT-4 degradation 16 h: Average Dmax %

T1 sequence (Q07817 whole entry): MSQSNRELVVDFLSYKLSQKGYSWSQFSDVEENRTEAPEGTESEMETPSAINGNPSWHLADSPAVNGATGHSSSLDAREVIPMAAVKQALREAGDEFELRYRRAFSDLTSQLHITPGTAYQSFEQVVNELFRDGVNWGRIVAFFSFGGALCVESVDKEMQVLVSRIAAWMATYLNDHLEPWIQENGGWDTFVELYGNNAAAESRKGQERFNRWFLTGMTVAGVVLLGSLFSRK

SMILES	Dmax [1, 3]	DC50 [1, 4]	pIC50 ([2]; MOLT-4, 72 h)	Dmax [1, 5]	pIC50 ([2]; 72 h)
Cc1ncsc1-c1ccc(CNC(=O)[C@@H]2C[C@@H](O)CN2C(=O)[C@@H](NC(=O)C2(F)CC2)C(C)(C)C)c(OCCCCCC(=O)NCCOc2ccc(C(=O)Nc3nc4ccccc4s3)c3c2CCN(c2ccc(-c4cnn(CC5CCCCC5)c4C)c(C(=O)O)n2)C3)c1 [I-47]	< 50%	> 1000 nM	< 5.52		
Cc1ncsc1-c1ccc([C@@H](CC(=O)N(C)CC(=O)N2CCN(CC[C@H](CSc3ccccc3)Nc3ccc(S(=O)(=O)NC(=O)c4ccc(N5CCN(CC6=C(c7ccc(Cl)cc7)CCC(C)(C)C6)CC5)cc4)cc3S(=O)(=O)C(F)(F)F)CC2)NC(=O)[C@@H]2C[C@@H](O)CN2C(=O)[C@@H](NC(=O)C2(F)CC2)C(C)(C)C)cc1 [I-137]		100 to 500 nM		> 75%	5.52 to 6.00
Cc1ncsc1-c1ccc([C@H](C)NC(=O)[C@@H]2C[C@@H](O)CN2C(=O)[C@@H](NC(=O)CCCCCCCCNC(=O)c2nc(N3CCc4cccc(C(=O)Nc5nc6ccccc6s5)c4C3)ccc2-c2cnn(CC3CCOCC3)c2C)C(C)(C)C)cc1 [I-142]	> 75%	100 to 500 nM	< 5.52		
Cc1ncsc1-c1ccc(CNC(=O)[C@@H]2C[C@@H](O)CN2C(=O)[C@@H](NC(=O)C2(F)CC2)C(C)(C)C)c(OCC(=O)N2CCN(CCCC3(Cn4ncc(-c5ccc(N6CCc7cccc(C(=O)Nc8nc9ccccc9s8)c7C6)nc5C(=O)O)c4C)CCCCC3)CC2)c1 [I-173]	50 to 75%	> 1000 nM	6.00 to 7.00		
Cc1ncsc1-c1ccc(CNC(=O)[C@@H]2C[C@@H](O)CN2C(=O)[C@@H](NC(=O)C2(F)CC2)C(C)(C)C)c(OCCCCCCCC(=O)NCCOc2ccc(C(=O)Nc3nc4ccccc4s3)c3c2CCN(c2ccc(-c4cnn(CC5CCCCC5)c4C)c(C(=O)O)n2)C3)c1 [I-48]	50 to 75%	100 to 500 nM	6.00 to 7.00		
Cc1cc(N(C)c2ccc(-c3cnn(CC4CCCCC4)c3C)c(C(=O)NS(=O)(=O)CCCCCOc3cc(-c4scnc4C)ccc3CNC(=O)[C@@H]3C[C@@H](O)CN3C(=O)[C@@H](NC(=O)C3(F)CC3)C(C)(C)C)n2)nnc1Nc1nc2ccccc2s1 [I-188]	50 to 75%	> 1000 nM	< 5.52		
Cc1ncsc1-c1ccc([C@H](C)NC(=O)[C@@H]2C[C@@H](O)CN2C(=O)[C@@H](NC(=O)CCCCCCCS(=O)(=O)NC(=O)c2nc(N3CCc4cccc(C(=O)Nc5nc6ncccc6s5)c4C3)ccc2-c2cnn(CC34CC5CC(CC(C5)C3)C4)c2C)C(C)(C)C)cc1 [I-140]	> 75%	< 10 nM	6.00 to 7.00		
Cc1ncsc1-c1ccc([C@H](C)NC(=O)[C@@H]2C[C@@H](O)CN2C(=O)[C@@H](NC(=O)N2CC3(CN(CCCS(=O)(=O)NC(=O)c4nc(N5CCc6cccc(C(=O)Nc7nc8ccccc8s7)c6C5)ccc4-c4cnn(CC5CCCCC5)c4C)C3)C2)C(C)(C)C)cc1 [I-151]	< 50%	100 to 500 nM	5.52 to 6.00		
Cc1ncsc1-c1ccc(CNC(=O)[C@@H]2CC(O)CN2C(=O)[C@@H](NC(=O)C2(F)CC2)C(C)(C)C)c(OCCCCCCCCS(=O)(=O)NC(=O)c2nc(N3CCc4cccc(C(=O)Nc5nc6ccccc6s5)c4C3)ccc2-c2cnn(CC34CC5CC(CC(C5)C3)C4)c2C)c1 (stereo partly drawn) [I-122]	> 75%	< 10 nM	> 7.00		
Cc1ncsc1-c1ccc([C@H](C)NC(=O)[C@@H]2C[C@@H](O)CN2C(=O)[C@H](c2cc(N3CCN(c4ccc(S(=O)(=O)NC(=O)c5nc(N6CCc7cccc(C(=O)Nc8nc9ccccc9s8)c7C6)ccc5-c5cnn(CC6CCCCC6)c5C)cc4)CC3)no2)C(C)C)cc1 [I-213]	50 to 75%	100 to 500 nM	5.52 to 6.00		
Cc1ncsc1-c1ccc([C@H](C)NC(=O)[C@@H]2C[C@@H](O)CN2C(=O)C(c2cc(OCC3CCN(CCNC(=O)c4nc(N5CCc6cccc(C(=O)Nc7nc8ccccc8s7)c6C5)ccc4-c4cnn(CC5CCCCC5)c4C)CC3)no2)C(C)C)cc1 (stereo partly drawn) [I-175]	< 50%	> 1000 nM	6.00 to 7.00		
Cc1ncsc1-c1ccc([C@H](C)NC(=O)[C@@H]2C[C@@H](O)CN2C(=O)[C@@H](NC(=O)CCCCCC(=O)N2CCN(CC[C@H](CSc3ccccc3)Nc3ccc(S(=O)(=O)NC(=O)c4ccc(N5CCC(C)(C)CC5)cc4)cc3S(=O)(=O)C(F)(F)F)CC2)C(C)(C)C)cc1 [I-392]	< 50%	> 1000 nM	< 5.52		
Cc1ncsc1-c1ccc(CNC(=O)[C@@H]2C[C@@H](O)CN2C(=O)[C@@H](c2cc(N3CC4(CN(CCCC(=O)N(C)CC#Cc5ccc(OCCCc6ccc(N7CCc8cccc(C(=O)Nc9nc%10ccccc%10s9)c8C7)nc6C(=O)O)c(F)c5)C4)C3)no2)C(C)C)cc1 [I-180]	< 50%	> 1000 nM	< 5.52		
Cc1ncsc1-c1ccc([C@H](C)NC(=O)[C@@H]2C[C@@H](O)CN2C(=O)[C@@H](NC(=O)CCCCCC(=O)N2CCN(CC[C@H](CSc3ccccc3)Nc3ccc(S(=O)(=O)NC(=O)c4csc(N5CCc6cccc(C(=O)Nc7nc8ccccc8s7)c6C5)n4)cc3S(=O)(=O)C(F)(F)F)CC2)C(C)(C)C)cc1 [I-108]	> 75%	10 to 100 nM	5.52 to 6.00		
Cc1ncsc1-c1ccc(CNC(=O)[C@@H]2C[C@@H](O)CN2C(=O)[C@@H](NC(=O)C2(F)CC2)C(C)(C)C)c(OCCCC(=O)NCCOc2ccc(C(=O)Nc3nc4ccccc4s3)c3c2CCN(c2ccc(-c4cnn(CC5CCCCC5)c4C)c(C(=O)O)n2)C3)c1 [I-46]	50 to 75%	100 to 500 nM	5.52 to 6.00		
Cc1ncsc1-c1ccc([C@H](CC(=O)N(C)CC(=O)N2CCN(CC[C@H](CSc3ccccc3)Nc3ccc(S(=O)(=O)NC(=O)c4ccc(N5CCN(CC6=C(c7ccc(Cl)cc7)CCC(C)(C)C6)CC5)cc4)cc3S(=O)(=O)C(F)(F)F)CC2)NC(=O)[C@@H]2C[C@@H](O)CN2C(=O)[C@@H](NC(=O)C2(F)CC2)C(C)(C)C)cc1 [I-136]		> 1000 nM		< 50%	< 5.52
Cc1ncsc1-c1ccc([C@H](C)NC(=O)[C@@H]2C[C@@H](O)CN2C(=O)[C@@H](NC(=O)CCCCCCCC(=O)NCCOc2ccc(C(=O)Nc3nc4ccccc4s3)c3c2CCN(c2ccc(-c4cnn(CC5CCCCC5)c4C)c(C(=O)O)n2)C3)C(C)(C)C)cc1 [I-45]	> 75%	10 to 100 nM	5.52 to 6.00		
Cc1ncsc1-c1ccc(CNC(=O)[C@@H]2C[C@@H](O)CN2C(=O)[C@@H](NC(=O)C2(F)CC2)C(C)(C)C)c(OCCCCNC(=O)c2nc(N3CCc4cccc(C(=O)Nc5nc6ccccc6s5)c4C3)ccc2-c2cnn(CC3CCCCC3)c2C)c1 [I-190]	50 to 75%	500 to 1000 nM	6.00 to 7.00		
Cc1ncsc1-c1ccc([C@H](C)NC(=O)[C@@H]2C[C@@H](O)CN2C(=O)[C@@H](NC(=O)CCCC(=O)NCCOc2ccc(C(=O)Nc3nc4ccccc4s3)c3c2CCN(c2ccc(-c4cnn(CC5CCCCC5)c4C)c(C(=O)O)n2)C3)C(C)(C)C)cc1 [I-43]	50 to 75%	100 to 500 nM	6.00 to 7.00		
Cc1ncsc1-c1ccc(CNC(=O)[C@@H]2C[C@@H](O)CN2C(=O)[C@@H](NC(=O)C2(C#N)CC2)C(C)(C)C)c(OCC(=O)N2CCN(CC[C@H](CSc3ccccc3)Nc3ccc(S(=O)(=O)NC(=O)c4ccc(N5CCN(CC6=C(c7ccc(Cl)cc7)CCC(C)(C)C6)CC5)cc4)cc3S(=O)(=O)C(F)(F)F)CC2)c1 [I-133]	> 75%	10 to 100 nM	5.52 to 6.00		
Cc1ncsc1-c1ccc(CNC(=O)[C@@H]2C[C@@H](O)CN2C(=O)[C@@H](NC(=O)C2(F)CC2)C(C)(C)C)c(OCCCNC(=O)c2nc(N3CCc4cccc(C(=O)Nc5nc6ccccc6s5)c4C3)ccc2-c2cnn(CC3CCCCC3)c2C)c1 [I-200]	50 to 75%	100 to 500 nM	6.00 to 7.00		
